# Data published in patent US20090156467A1, “Thymic stromal lymphpoietin promoter and use therefor” (priority 2004, published 2009).
# Assays:
# [1] = tested on: TSLP promoter (TSLP-Luc construct); experiment: TSLP-Luc transient transfection luciferase reporter assay in LAD 2 cells; format: cell-based, human; details: A23187 500 ng/ml alone
# Excerpt: (§1) A calcium ionophore alone was also able to stimulate TSLP promoter activity.
# [2] = tested on: TA-Luc (control construct); experiment: TA-Luc control construct transient transfection luciferase reporter assay in LAD 2 cells; format: cell-based, human; details: A23187 500 ng/ml alone
# Excerpt: as §1
smiles,measurement,setting,value
CNc1ccc2oc(C[C@H]3O[C@@]4(CC[C@H]3C)O[C@H]([C@H](C)C(=O)c3ccc[nH]3)[C@H](C)C[C@H]4C)nc2c1C(=O)O [A23187],"F/R luciferase activity, TSLP-Luc construct",[1],171.0 units of F/R luciferase activity
same,"F/R luciferase activity, control construct TA-Luc",[2],29.6 units of F/R luciferase activity
